These results are taken from ChEMBL document CHEMBL4602729, “O-Alkyl Hydroxamates Display Potent and Selective Antileishmanial Activity” (J Med Chem, 2020).

Data set [1] is described as follows: (§1) Cytotoxicity against mouse L929 cells assessed as reduction in cell viability measured after 72 hrs by tryphan blue assay. As to conditions: L929 cells. The data set is classed as cell-based.
A short description of data set [2]: (§2) Cytotoxicity against Swiss mouse BMDM assessed as reduction in cell viability measured after 72 hrs by tryphan blue assay. The data set is classed as cell-based. As to conditions: Swiss, BMDM.
Data set [3] is described as follows: Selectivity index, ratio of CC50 for mouse L929 cells to IC50 for Leishmania infantum MON-1 intracellular amastigotes infected in Swiss mouse BMDM. The data set is classed as toxicity, cell-based.
A short description of data set [4]: Selectivity index, ratio of CC50 for mouse L929 cells to IC50 for Leishmania donovani MON-2 intracellular amastigotes. It counts as toxicity, cell-based.
A short description of data set [5]: Selectivity index, ratio of CC50 for mouse L929 cells to IC50 for Leishmania major MON-4 intracellular amastigotes. The data set is classed as toxicity, cell-based.
A short description of data set [6]: Selectivity index, ratio of CC50 for mouse L929 cells to IC50 for Leishmania tropica MON-102 intracellular amastigotes. The data set is classed as toxicity, cell-based.
A further data set has as its system Leishmania major. Kind of data set: Antileishmanial activity against Leishmania major MON-4 intracellular amastigotes. The data set is classed as functional, organism-based.
In another data set the test system is Leishmania tropica. Kind of data set: Antileishmanial activity against Leishmania tropica MON-102 intracellular amastigotes. It counts as functional, organism-based.
The subject of another data set is Leishmania donovani. Put plainly: Antileishmanial activity against Leishmania donovani MON-2 intracellular amastigotes. It counts as functional, organism-based.
For data set [7], the system named is Leishmania infantum. Kind of data set: Antileishmanial activity against Leishmania infantum MON-1 intracellular amastigotes infected in Swiss mouse BMDM measured after 48 hrs by Giemsa staining based optical microscopic analysis. The data set is classed as functional, organism-based.
The subject of data set [8] is Leishmania infantum. Put plainly: Antileishmanial activity against Leishmania infantum MON-1 promastigotes infected in BALB/c mouse assessed as reduction in liver parasite load at 104 mg Sbv/kg, ip administered daily for 14 days starting from 28 days post infection measured post last dose by Taqman qRT-PCR analysis relative to control. It counts as functional, organism-based. Further details: scale not given: the % may be the effect or the level left. Background: In qPCR the cycle at which signal appears reflects the starting amount.

The test system of data set [9] is Leishmania infantum. Kind of data set: Antileishmanial activity against Leishmania infantum MON-1 promastigotes infected in BALB/c mouse assessed as reduction in spleen parasite load at 104 mg Sbv/kg, ip administered daily for 14 days starting from 28 days post infection measured post last dose by Taqman qRT-PCR analysis relative to control. The data set is classed as functional, organism-based. Further details: scale not given: the % may be the effect or the level left.

The subject of the next data set is L929. The data set is described as §1. The data set is classed as cell-based. Particulars: l929, 72 h.
The subject of a further data set is BMDM. The data set is described as §2. The data set is classed as cell-based. Particulars: bmdm, 72 h.
Data set [10] in a line: Toxicity in BALB/c mouse infected with Leishmania infantum MON-1 promastigotes assessed as change in AST level at 104 mg Sbv/kg, ip administered daily for 14 days starting from 28 days post infection using PLGA nanoparticle incorporated compound. It counts as organism-based. Particulars: in vivo.
In data set [11] the test system is Leishmania infantum. Put plainly: Antileishmanial activity against Leishmania infantum MON-1 promastigotes assessed as reduction in parasite viability at 100 uM measured after 48 hrs by MTT assay. It counts as functional, organism-based. On the technique in general: Tetrazolium dyes change colour on reduction, which living cells bring about.
[12] abbreviates: Leishmania infantum, MON-1, BMDM, 48 h.

Broadly, the CC50 is the concentration at which the toxic effect on the cells reaches its halfway point. A word on the IC50: it is the point on the concentration scale where inhibition reaches its midpoint.

Active and inactive are the calls of the source. The rule behind the calls is not given here.

Turning to `COc1ccc(C(ONC(=O)CCCCCCC(=O)Nc2ccccc2)(c2ccccc2)c2ccc(OC)cc2)cc1`, the CC50 at 72 h in [1] and in [2] was less than 1 µM in each case.
Regarding `N=C(N)c1ccc(OCCCCCOc2ccc(C(=N)N)cc2)cc1`, the selectivity ratio in data set [3] (read-out: Ratio CC50/IC50) stood at 4; in data set [4] (read-out: Ratio CC50/IC50), 7; in data set [5] (read-out: Ratio CC50/IC50), 6; in [6] (read-out: Ratio CC50/IC50), 10. In addition, the half-maximal inhibitory concentration (IC50) came to 0.96 µM with Leishmania major (Leishmania major, MON-4); 0.62 µM with Leishmania tropica (Leishmania tropica, MON-102); 0.88 µM with Leishmania donovani (Leishmania donovani, MON-2); 1.5 µM with Leishmania infantum [7] (setting [12]). In [2], the CC50 at 72 h lay in the range of 5 to 20 µM.
On to `Cc1ccc(C(ONC(=O)CCCCCCC(=O)Nc2ccccc2)(c2ccccc2)c2ccccc2)cc1`, for which the cytotoxic concentration (CC50) at 72 h in [2] was less than 100 µM. In the data set with Leishmania infantum [7] (setting [12]), this compound gave a 50% inhibitory concentration (IC50) of 69.1 µM.
Regarding “MEGLUMINE ANTIMONATE [listing 1 of 2 here]”, the Activity worked out at 83% with Leishmania infantum [8] and 33% in the data set with Leishmania infantum [9].
As to “MEGLUMINE ANTIMONATE [listing 2 of 2 here]”, the “Ratio CC50/IC50” value in data set [3] is 2; in data set [4], 3; in data set [5], 3; in data set [6] it was 2. Also, the IC50 was 101 µM in the data set with Leishmania major, 123 µM with Leishmania tropica, 96.4 µM with Leishmania donovani and 144 µM in the data set with Leishmania infantum [7]. The figures for the CC50 with L929 and in the data set on BMDM were 273 µM and 200 to 500 µM, respectively. For the same compound, in data set [10], the Activity entry was “Toxic”.
Turning to `O=C(CCCCCCC(=O)Nc1ccccc1)NOCc1ccccc1`, the result in the data set with Leishmania infantum [11] was inactive. The cytotoxic concentration (CC50) at 72 h in data set [1] and in data set [2] was more than 100 µM each time. The compound further displayed an IC50 in the data set on Leishmania infantum [7] (setting [12]) of 0.44 µM.
For `CCCCc1ccc(C(=O)NCC(=O)NOC(c2ccccc2)(c2ccccc2)c2ccccc2)cc1`, in the data set on Leishmania infantum [11], the result was inactive. Moreover, the cytotoxic concentration (CC50) at 72 h in [1] and in [2] was more than 100 µM each time. Also, the 50% inhibitory concentration (IC50) in the data set with Leishmania infantum [7] (setting [12]) came to 1.05 µM.
For `O=C(CCCCCCC(=O)Nc1ccccc1)NO` [VORINOSTAT], in [2], the cytotoxic concentration (CC50) at 72 h was in the range of 5 to 20 µM.
As for `O=C(CCCCCCN1C(=O)c2ccc(C#Cc3ccccc3)cc2S1(=O)=O)NOC(c1ccccc1)(c1ccccc1)c1ccccc1`, in [2], the CC50 at 72 h was more than 100 µM. In the data set on Leishmania infantum [7] (setting [12]), this compound yielded an IC50 of 3.67 µM.
As for `O=C(CCCCCCC(=O)Nc1ccccc1)NOC(c1ccccc1)(c1ccccc1)c1ccccc1Cl`, the half-maximal cytotoxic concentration (CC50) at 72 h in [2] is more than 100 µM. In the data set on Leishmania infantum [7] (setting [12]), this compound displayed an IC50 of 74.9 µM.
